Experimental data: ChEMBL document CHEMBL1133402, “Irreversible inhibition of type I dehydroquinase by substrates for type II dehydroquinase” (Bioorg Med Chem Lett, 2000)
Calls of active or inactive are those of the source. No cut-off for these calls is given here.

Legend:
[1] = target: T1, 3-dehydroquinate dehydratase (Escherichia coli K-12) (UniProt P05194); experiment: Tested for percent inactivation against dehydroquinase after 24 hr at 10 mM
T1 sequence (whole entry): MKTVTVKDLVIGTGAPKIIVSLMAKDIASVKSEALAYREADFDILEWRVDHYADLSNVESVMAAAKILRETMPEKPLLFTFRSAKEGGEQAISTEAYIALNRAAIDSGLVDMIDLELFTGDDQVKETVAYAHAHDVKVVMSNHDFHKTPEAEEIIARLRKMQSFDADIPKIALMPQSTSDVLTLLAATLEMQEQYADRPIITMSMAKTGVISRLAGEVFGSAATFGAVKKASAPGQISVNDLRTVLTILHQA

[2] = target: T1, 3-dehydroquinate dehydratase (Escherichia coli K-12); experiment: kcat/Km value was determined
[3] = target: T2, 3-dehydroquinate dehydratase (Escherichia coli K-12, UniProt P05194); experiment: Tested for the binding affinity against dehydroquinase
T2 sequence (P05194 whole entry): T1 sequence (whole entry)

[4] = target: T1, 3-dehydroquinate dehydratase (Escherichia coli K-12); experiment: Tested for inhibitory activity against type I dehydroquinase; active

Compound | Inactivation [1] | k cat/Km [2] | Ki [3] | Activity [4]
O=C1C(O)C(O)CC(O)(C(=O)O)C1Br (centres undefined) | 70% | 367000 M⁻¹ s⁻¹ | 3700 µM | Active
O=C(O)C1=C(Br)C(=O)[C@@H](O)[C@H](O)C1 | – | – | – | Active
O=C1C(O)C(O)CC(O)(C(=O)O)C1F (centres undefined) | 45% | 86000 M⁻¹ s⁻¹ | 80 µM | Active
